Experimental data published in US20240336574A1 (LATIGO BIOTHERAPEUTICS, INC., priority 2021, published 2024).
Where two headings read alike, the source gives them in different places.

Target: T1, recombinant human NaV1.8 stably transfected HEK cells (Homo sapiens, UniProt Q9Y5Y9)
T1 construct: expressed in transfected cells; host or cells: HEK cells, stably transfected
Experiment: Compound profiling on NaV1.8, human NaV1.8 cell line, SyncroPatch384PE automated patch clamp assay (Example 102, first set of compounds, Table 16)
Format: cell-based
Conditions: human NaV1.8 HEK cells, Table 16 (first set of compounds)
Method in brief: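 Automated whole-cell patch clamp on HEK cells precultured at 30 °C one day before recording; CsF-based internal, 140 mM NaCl external. 10-point curve, 20–0.001 μM final, 0.1% DMSO, 5 min exposure. IC50 for resting (P1, −120 mV hold) and inactivated (P2, after 10 s at −40 mV) block, normalized to 250 μM tetracaine and DMSO.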

[1] = inactivated state block (P2 measurement), read-out: P2IC50
[2] = resting state block (P1 measurement), read-out: P1IC50

T1 sequence (Q9Y5Y9 whole entry): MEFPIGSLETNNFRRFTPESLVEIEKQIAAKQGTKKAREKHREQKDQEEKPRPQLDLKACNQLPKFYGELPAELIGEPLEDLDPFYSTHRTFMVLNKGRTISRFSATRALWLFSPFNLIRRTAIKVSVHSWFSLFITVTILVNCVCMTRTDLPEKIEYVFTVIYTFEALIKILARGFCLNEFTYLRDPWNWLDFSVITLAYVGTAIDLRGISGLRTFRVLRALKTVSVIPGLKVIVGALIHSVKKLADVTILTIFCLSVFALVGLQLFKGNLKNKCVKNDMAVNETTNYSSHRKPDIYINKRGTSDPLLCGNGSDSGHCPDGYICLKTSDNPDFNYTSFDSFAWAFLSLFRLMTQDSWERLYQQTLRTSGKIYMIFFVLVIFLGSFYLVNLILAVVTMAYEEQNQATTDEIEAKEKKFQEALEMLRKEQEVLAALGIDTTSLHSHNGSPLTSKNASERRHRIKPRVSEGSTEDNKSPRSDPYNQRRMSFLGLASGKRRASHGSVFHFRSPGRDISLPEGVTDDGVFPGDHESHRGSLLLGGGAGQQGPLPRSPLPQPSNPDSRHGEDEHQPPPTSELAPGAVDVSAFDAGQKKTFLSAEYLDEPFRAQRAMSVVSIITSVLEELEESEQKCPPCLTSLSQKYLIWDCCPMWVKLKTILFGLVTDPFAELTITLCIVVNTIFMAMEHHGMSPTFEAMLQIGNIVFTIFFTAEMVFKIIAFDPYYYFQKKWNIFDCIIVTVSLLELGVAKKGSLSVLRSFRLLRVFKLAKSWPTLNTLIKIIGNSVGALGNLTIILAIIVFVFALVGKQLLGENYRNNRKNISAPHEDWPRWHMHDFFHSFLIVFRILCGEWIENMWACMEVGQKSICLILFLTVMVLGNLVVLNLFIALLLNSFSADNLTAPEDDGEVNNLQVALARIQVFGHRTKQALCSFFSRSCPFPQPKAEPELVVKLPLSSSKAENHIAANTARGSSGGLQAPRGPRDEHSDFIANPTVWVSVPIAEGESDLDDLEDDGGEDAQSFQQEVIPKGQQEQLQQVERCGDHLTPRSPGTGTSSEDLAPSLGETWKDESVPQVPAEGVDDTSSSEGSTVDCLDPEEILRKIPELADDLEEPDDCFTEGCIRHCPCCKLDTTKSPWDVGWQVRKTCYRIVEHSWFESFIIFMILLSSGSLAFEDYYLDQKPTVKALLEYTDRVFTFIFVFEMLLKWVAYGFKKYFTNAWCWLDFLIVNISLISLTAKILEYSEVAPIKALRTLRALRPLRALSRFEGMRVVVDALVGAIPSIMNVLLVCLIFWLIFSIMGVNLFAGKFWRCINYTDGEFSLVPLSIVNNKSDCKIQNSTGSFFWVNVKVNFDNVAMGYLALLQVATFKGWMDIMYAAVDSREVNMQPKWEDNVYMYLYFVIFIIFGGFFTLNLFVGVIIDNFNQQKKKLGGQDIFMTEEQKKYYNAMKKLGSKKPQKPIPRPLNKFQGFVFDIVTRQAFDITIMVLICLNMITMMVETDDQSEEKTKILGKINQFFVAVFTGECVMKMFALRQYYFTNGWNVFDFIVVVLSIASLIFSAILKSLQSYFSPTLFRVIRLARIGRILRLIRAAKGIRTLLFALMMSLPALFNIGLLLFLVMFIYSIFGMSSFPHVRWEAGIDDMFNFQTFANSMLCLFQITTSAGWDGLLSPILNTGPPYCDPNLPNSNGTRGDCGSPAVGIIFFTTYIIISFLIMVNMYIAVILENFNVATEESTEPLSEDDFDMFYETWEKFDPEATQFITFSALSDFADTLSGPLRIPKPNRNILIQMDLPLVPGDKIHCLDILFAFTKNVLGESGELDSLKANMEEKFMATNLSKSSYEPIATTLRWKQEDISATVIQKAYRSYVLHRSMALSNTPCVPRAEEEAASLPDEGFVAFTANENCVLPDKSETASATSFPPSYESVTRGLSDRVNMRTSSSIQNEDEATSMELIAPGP

In the case of CS(=O)(=O)c1cccc(NC(=O)c2cc(C(F)(F)F)cnc2OCC2CC2(F)F)c1 (stereo not drawn) [Compound 1659], the IC50 [1] is reported as 40 to 200 nM and the IC50 [2] is reported as 40 to 200 nM.
With Cc1nn(C)c(C)c1Oc1ncc(C(F)(F)F)cc1C(=O)Nc1cccc(S(C)(=O)=O)c1 [Compound 1611] the IC50 [1] was 200 to 500 nM and the IC50 [2] was 200 to 500 nM.
Molecule Cc1cc(C#N)ccc1Oc1nnc(C(F)(F)F)c(C)c1C(=O)Nc1cccc([S@](C)(=N)=O)c1 [Compound 1526, 3-(4-cyano-2-methylphenoxy)-N-{3-[(R)-imino(methyl)oxo-λ^6-sulfanyl]phenyl}-5-methyl-6-(trifluoromethyl)pyridazine-4-carboxamide] has an IC50 [1] of no more than 20 nM and an IC50 [2] of no more than 20 nM.
For COc1cc(C#N)ccc1Oc1ncc(C(F)(F)F)cc1C(=O)Nc1cccc(S(N)(=O)=O)c1 [Compound 1561, 2-(4-cyano-2-methoxyphenoxy)-N-(3-sulfamoylphenyl)-5-(trifluoromethyl)pyridine-3-carboxamide], the IC50 [1] was no more than 20 nM and the IC50 [2] was no more than 20 nM.
In the case of Cc1c(Oc2nnc(C(F)(F)F)c(C)c2C(=O)Nc2cccc(S(C)(=N)=O)c2)ccc(OC(F)(F)F)c1F (stereo not drawn) [Compound 1515, 3-[3-fluoro-2-methyl-4-(trifluoromethoxy)phenoxy]-N-{3-[imino(methyl)oxo-λ^6-sulfanyl]phenyl}-5-methyl-6-(trifluoromethyl)pyridazine-4-carboxamide], the IC50 [1] is reported as no more than 20 nM and the IC50 [2] is reported as no more than 20 nM.
With Cc1ccc(Oc2nnc(C(F)(F)F)c(C)c2C(=O)Nc2cccc(S(C)(=N)=O)c2)c(C)n1 (single isomer, unassigned) [Compound 1485, 3-[(2,6-dimethylpyridin-3-yl)oxy]-N-{3-[imino(methyl)oxo-λ^6-sulfanyl]phenyl}-5-methyl-6-(trifluoromethyl)pyridazine-4-carboxamide] the IC50 [2] was 200 to 500 nM.
COc1cc(F)ccc1Oc1nnc(C(F)(F)F)c(OC)c1C(=O)Nc1cccc([S@@](C)(=N)=O)c1 [Compound 1517, (S)-3-(4-fluoro-2-methoxyphenoxy)-5-methoxy-N-(3-(S-methylsulfonimidoyl)phenyl)-6-(trifluoromethyl)pyridazine-4-carboxamide] gave an IC50 [1] of 20 to 40 nM and an IC50 [2] of no more than 20 nM.
Molecule COc1cc(C#N)ccc1Oc1ncc(C2CCOCC2)cc1C(=O)Nc1cccc(S(C)(=N)=O)c1 (stereo not drawn) [Compound 1727, 2-(4-cyano-2-methoxy-phenoxy)-N-[3-(methylsulfonimidoyl)phenyl]-5-tetrahydropyran-4-yl-pyridine-3-carboxamide] has an IC50 [1] of 200 to 500 nM and an IC50 [2] of 200 to 500 nM.
Molecule Cc1cc(F)ccc1Oc1ncc(C#N)cc1C(=O)Nc1cccc(S(C)(=N)=O)c1 (stereo not drawn) [Compound 1578] has an IC50 [1] of 200 to 500 nM and an IC50 [2] of 200 to 500 nM.
CNCC(=O)N=[S@](C)(=O)c1cccc(NC(=O)c2cc(C(F)(F)F)cnc2Oc2ccc(F)cc2C)c1 [Compound 1720, (R)-2-(4-fluoro-2-methylphenoxy)-N-(3-(S-methyl-N-(methylglycyl)sulfonimidoyl)phenyl)-5-(trifluoromethyl)nicotinamide] was tested, and the IC50 [1] was no more than 20 nM and the IC50 [2] was no more than 20 nM.
In the case of CS(=N)(=O)c1cccc(NC(=O)c2cc(C(F)(F)F)cnc2Oc2ccc(-n3ccnc3)cc2)c1 (stereo not drawn) [Compound 1586], the IC50 [1] is reported as 200 to 500 nM and the IC50 [2] is reported as 200 to 500 nM.
In the case of COc1ccc(Oc2ncc(C(F)(F)F)cc2C(=O)Nc2cccc(S(C)(=N)=O)c2)cc1C#N (stereo not drawn) [Compound 1591], the IC50 [1] is reported as 200 to 500 nM and the IC50 [2] is reported as 200 to 500 nM.
For Cc1cc(F)ccc1Oc1nccc(C(F)(F)F)c1C(=O)Nc1cccc(S(C)(=N)=O)c1 (stereo not drawn) [Compound 1650], the IC50 [1] was 40 to 200 nM and the IC50 [2] was 40 to 200 nM.
Molecule Cc1c(C(F)(F)F)nnc(Oc2c(F)cc(OC(F)(F)F)cc2F)c1C(=O)Nc1cccc(S(C)(=O)=O)c1 [Compound 1423] has an IC50 [1] of 200 to 500 nM and an IC50 [2] of 200 to 500 nM.
N#CC1CC(Oc2ncc(C(F)(F)F)cc2C(=O)Nc2cccc(C(N)=O)c2)C1 (mixture of isomers) [Compound 1668] showed an IC50 [1] of 200 to 500 nM and an IC50 [2] of 200 to 500 nM.
In the case of CS(=O)(=O)c1cccc(NC(=O)c2cc(C(F)(F)F)cnc2Oc2cncc3ccccc23)c1 [Compound 1581], the IC50 [1] is reported as 200 to 500 nM and the IC50 [2] is reported as 200 to 500 nM.
With COc1cc(C#N)ccc1Oc1nnc(C(F)(F)F)c(C)c1C(=O)Nc1cccc(S(N)(=O)=O)c1 [Compound 1418] the IC50 [1] was no more than 20 nM and the IC50 [2] was no more than 20 nM.
CC(C#N)Oc1cc(F)c(Oc2ncc(C(F)(F)F)cc2C(=O)Nc2cccc(C(N)=O)c2)cc1F (stereo not drawn) [Compound 1687] was tested, and the IC50 [1] was 200 to 500 nM and the IC50 [2] was 200 to 500 nM.
COc1c(Oc2ncc(C(F)(F)F)cc2C(=O)Nc2cccc(S(C)(=N)=O)c2)ccc(F)c1Cl (stereo not drawn) [Compound 1618] was tested, and the IC50 [1] was no more than 20 nM and the IC50 [2] was no more than 20 nM.
COc1cc(C#N)ccc1Oc1nnc(-c2ccc(C#N)cc2)c(C)c1C(=O)Nc1cccc([S@](C)(=N)=O)c1 [Compound 1531, (R)-3-(4-cyano-2-methoxyphenoxy)-6-(4-cyanophenyl)-5-methyl-N-(3-(S-methylsulfonimidoyl)phenyl)pyridazine-4-carboxamide] gave an IC50 [1] of 40 to 200 nM and an IC50 [2] of 40 to 200 nM.
In the case of Cc1cc(C#N)ccc1Oc1nnc(C(F)(F)F)c(C)c1C(=O)Nc1cccc(S(C)(=O)=O)c1 [Compound 1465, 3-(4-cyano-2-methylphenoxy)-N-(3-methanesulfonylphenyl)-5-methyl-6-(trifluoromethyl)pyridazine-4-carboxamide], the IC50 [1] is reported as no more than 20 nM and the IC50 [2] is reported as no more than 20 nM.
COc1c(Oc2ncc(C(F)(F)F)cc2C(=O)Nc2cccc(C(N)=O)c2)ccc(F)c1F [Compound 1619] gave an IC50 [1] of no more than 20 nM and an IC50 [2] of no more than 20 nM.
In the case of COc1ccc(-c2nnc(Oc3ccc(C#N)cc3OC)c(C(=O)Nc3cccc(S(C)(=N)=O)c3)c2C)cc1 (stereo not drawn) [Compound 1454, 3-(4-cyano-2-methoxy-phenoxy)-6-(4-methoxyphenyl)-5-methyl-N-[3-(methylsulfonimidoyl)phenyl]pyridazine-4-carboxamide], the IC50 [1] is reported as no more than 20 nM and the IC50 [2] is reported as no more than 20 nM.
For COc1cc(C#N)ccc1Oc1ncc(C23CCOCC2C3)cc1C(=O)Nc1cccc(S(C)(=N)=O)c1 (stereo not drawn) [Compound 1725, 2-(4-cyano-2-methoxy-phenoxy)-N-[3-(methylsulfonimidoyl)phenyl]-5-(3-oxabicyclo[4.1.0]heptan-6-yl)pyridine-3-carboxamide], the IC50 [1] was 200 to 500 nM and the IC50 [2] was 200 to 500 nM.
COc1cc(F)c(Oc2ncc(C(F)(F)F)cc2C(=O)Nc2cccc(C(N)=O)c2)cc1F [Compound 1638] was tested, and the IC50 [1] was 200 to 500 nM and the IC50 [2] was 200 to 500 nM.
For COc1cc(C#N)ccc1Oc1nnc(-c2ccc(C#N)cc2)c(C)c1C(=O)Nc1ccc[n+]([O-])c1 [Compound 1527, 3-(4-cyano-2-methoxy-phenoxy)-6-(4-cyanophenyl)-5-methyl-N-(1-oxidopyridin-1-ium-3-yl)pyridazine-4-carboxamide], the IC50 [1] was 20 to 40 nM and the IC50 [2] was 20 to 40 nM.
Molecule CC(C)Oc1ccc(Oc2ncc(C(F)(F)F)cc2C(=O)Nc2ccc(C(N)=O)cc2)c(F)c1 [Compound 1710] has an IC50 [1] of 200 to 500 nM and an IC50 [2] of 200 to 500 nM.
For COc1cc(C#N)ccc1Oc1nnc(C(F)(F)F)c(C)c1C(=O)Nc1cccc(C(=O)NC2CCCC2C(N)=O)c1 (stereo not drawn) [Compound 1444, N-[3-[(2-carbamoylcyclopentyl)carbamoyl]phenyl]-3-(4-cyano-2-methoxy-phenoxy)-5-methyl-6-(trifluoromethyl)pyridazine-4-carboxamide], the IC50 [1] was 200 to 500 nM and the IC50 [2] was 200 to 500 nM.
With COc1cc(C#N)ccc1Oc1nnc(C(F)(F)F)c(C)c1C(=O)Nc1cncc(C#N)c1 [Compound 1540, 3-(4-cyano-2-methoxy-phenoxy)-N-(5-cyano-3-pyridyl)-5-methyl-6-(trifluoromethyl)pyridazine-4-carboxamide] the IC50 [1] was 40 to 200 nM and the IC50 [2] was 40 to 200 nM.
